For 62 compounds, melting point results are on record in a melting point compilation (Tetko et al.; mined from patent text by program, amines drawn as free bases though some values may be those of a salt).

As for `CC(=O)S[C@H]1CNC(=O)C1`, the melting point (usually the temperature of the solid-liquid transition) was 114 to 116 °C.
The compound `COC(=O)c1c(Cl)ccc2[nH]c(Sc3cccc4c(S(C)(=O)=O)c[nH]c34)nc12` displayed a melting point of 284 to 286 °C.
In the case of `COc1cc(NC(=O)OC(C)(C)C)cc2c1nc(C(F)F)n2-c1nc(N2CCOCC2)nc(N2CCN(S(=O)(=O)CCN(C)C)CC2)n1`, the melting point lay within 200 to 202 °C.
Next, `Cc1cc(-c2c(-c3ccc(F)cc3)nn3cccnc23)ccn1`: 164 to 166 °C.
Next, `Cc1ccc2c(c1)CN1CCCC1C(=O)N2C` (configuration not stated): 80 to 82 °C; `COc1cc(OC)c(C(=O)CCCCN2CCC3(CC2)NC(=O)NC3=O)cc1NS(=O)(=O)c1ccc(C(F)(F)F)cc1`: 226 °C; `Nc1nc(NCCO)nc(-c2cc(Cl)ccc2Cl)n1`: 198 to 199 °C.
The compound `Cc1ccccc1NC(=O)Nc1ccc(CC(=O)N[C@@H](CC(C)C)C(=O)O)cc1` showed a melting point of 178 to 179 °C.
Next, `N=C(NOC(=O)c1ccccc1)c1ccc(NC(=O)CCCC(=O)Nc2ccc(C(=N)NOC(=O)c3ccccc3)cc2)cc1`: 253 to 255 °C; `N#CC(=CO)c1ccc(Cl)cc1Cl`: 162 to 163 °C; `CCCC(=O)Nc1n[nH]c2cc(Cl)c(-c3ccc(OCc4ccccc4)cc3)cc12`: 230 °C.
Under `CC1CCC(C(C)C)C(OC(=O)N[C@@]2(C)CCC(=O)NC2=O)C1` (some centres not stated) stands 170 to 172 °C; under `C=Cc1ccc(CNc2ccccn2)c(Cl)c1`, 119 to 121 °C.
Next, `Clc1cnc2c(NCc3ccccc3)nc(Cl)nc2c1`: 169 to 170 °C; `Cn1c2cc(O)c(O)cc2c2cc(O)c(O)cc21`: greater than 270 °C; `CNc1c(F)c(F)c(F)c2c1c(=O)c(C(=O)O)cn2C1CC1`: 205 to 207 °C.
The compound `CC(C)c1onc(-c2ccccc2)c1S(=O)(=O)c1ccc(O)cc1` displayed a melting point of 173 to 174 °C.
Under `Cc1c(C)c(N2CCN(c3ccc(S(C)(=O)=O)cc3)CC2)c(C)c2c1OC(C)(C)C2` stands 256 to 260 °C; under `CS(=O)(=O)c1ccc(-c2oc3ccccc3c(=O)c2-c2cccc(F)c2)cc1`, 225 °C; under `COc1c(CC#N)c2c(c3c1OC(C)(C)C3)C(c1ccccc1)=NC(C)(C)C2`, 95 to 96 °C.
Next, `CC(C)OP(C)(=O)COS(=O)(=O)c1c(Cl)cccc1C(C)C` (configuration not stated): 69.5 to 70.5 °C; `Cc1oc(-c2ccccc2)nc1COc1cccc(CON=C(CCC(=O)O)c2ccccc2)c1`: 108 to 109 °C; `CCC(=O)c1ccc2cc(O)ccc2c1`: 158 to 159 °C.
Next, `Cc1ccc(S(=O)(=O)N2CC(CO)(C(=O)O)C2)cc1`: 148 to 150 °C.
The compound `FC(F)(F)c1ccc(CN2CC3(COc4cc5c(cc43)CCO5)c3c(-c4cncnc4)cccc32)o1` (configuration not stated) displayed a melting point of 263 to 266 °C.
Next, `CCOP1(=S)OCc2cc(C)cnc2O1` (configuration not stated): 54 to 55 °C.
Next, `NNC(=O)OCCOc1ccc(C(=O)c2ccccc2)c(O)c1`: 58 to 61 °C.
Next, `CCCCCS(=O)(=O)NC(=O)/C=C/c1cc(OCCOC)nn1Cc1ccc(C(F)(F)F)cc1Cl`: 130 to 132 °C; `O=c1[nH]c(=O)n(CCCCN2CCC(OC(c3ccccc3)c3ccccc3)CC2)c2ccc(Cl)cc12`: 209 to 210 °C.
`COc1ccc2ncc(NC(=O)C=Cc3cc(OC)c(OC(C)=O)c(OC)c3)c(-c3ccccc3)c2c1` yielded a melting point of 273 to 275 °C.
Under `COc1cc(C(=O)CBr)cc(OC)c1OC` stands 61 to 62 °C.
Under `COc1cc(OC)c(-c2cccs2)cc1C#CC(=O)c1ccc(C(=O)O)cc1` stands 220 °C; under `CC(=O)SCCC1C(=O)N2CCCC(C(=O)OC(C)(C)C)N2C1=O` (configuration not stated), 86 to 88 °C; under `COc1cc(C(=O)O)c(OC)cc1C`, 120 °C.
Compound `Nc1cc(C(=O)O)cc(NCc2ccccc2)c1-c1ccccc1` came in with a melting point of 179 to 181 °C.
Turning to `COC(=O)C(NS(=O)(=O)c1ccc(-c2ccc(NC(=O)c3cc4cc(OC)ccc4o3)cc2)cc1)C(C)C` (configuration not stated), the melting point was 234 to 235 °C.
Next, `O=C(CO)NCCCn1c(-c2ccc(Br)cc2)csc1=Nc1ccccc1`: 185 to 186 °C; `O=C(Nc1ccc2cc(CN3CCC(CCO)CC3)cnc2c1)c1ccc(-c2ccc(F)cc2)cc1`: 193 to 196 °C.
Next, `CCC(=O)c1cc2c(cc1O)CCCC2`: 57 to 58 °C; `CC(C)(C)OC(=O)N1Cc2c(Br)sc(Br)c2C1`: 144 to 145 °C.
Under `CN1CCNS(=O)(=O)c2cc(Oc3ccccc3)ccc21` stands 128 to 131 °C; under `COc1cc(OC)c2c(=O)[nH]c(-c3ccc(OCCNC(C)C)c(-c4ccccc4)n3)nc2c1`, 179 to 180 °C; under `COc1ccc2c(c1)C(=O)N(CCCN(C)CCN1C(=O)c3cc(OC)ccc3C(C)(C)C1=O)C(=O)C2(C)C`, 142 to 143 °C.
With `O=C1CCC(=O)C(c2ccccc2)N1` (configuration not stated), the melting point was in the range of 160 to 164 °C.
Under `CCOC(=O)C(=O)Nc1cc(OC)c(OC)cc1[N+](=O)[O-]` stands 163 °C; under `O=Cc1ccc(O)c2ccsc12`, 204 °C; under `COc1cc(C2CCN(C(=O)C(C)(C)N)CC2)ccc1Nc1ncc2ccc(-c3ccccc3N(C)S(C)(=O)=O)n2n1`, 92 to 100 °C.
Next, `CCN1C(=O)C(C)(C)C(=O)N(C)c2cc(CN(CCn3ccc4oc(C)cc4c3=O)Cc3cncn3C)ccc21`: 106 to 108 °C.
Next, `Nc1nc(=O)c2ncn(C3OC4COP(=O)(O)OC4C3O)c2[nH]1` (configuration not stated): 91.6 to 93.7 °C; `CCCCOc1c(CNC(=O)OC(C)(C)C)n(CC(C)C)c(=O)c2ccc(/C=C/c3cscn3)cc12`: 141 to 142 °C; `Nc1nc(Nc2ccc(S(N)(=O)=O)cc2)sc1C(=O)c1sc(Br)cc1Br`: 254 to 255 °C.
On to `CN(CCCCc1ccccc1)CCCc1ccccc1`, for which the melting point was in the range of 81 to 83 °C.
Under `Cn1nc(CNC(=O)c2ccccc2)nc1NCCCOc1cccc(CN2CCCCC2)c1` stands 70 °C; under `CN1CCN(C2=Nc3ccccc3Nc3cscc32)CC1`, 200 to 201 °C.
Next, `COc1cnccc1NC(=O)Nc1ccc(N2CCN(C(=O)Nc3ccc(OCCO)cc3C(F)(F)F)CC2)cc1`: 142 to 143 °C; `COc1ccc(Cn2ccn(C3CCc4ccccc4C3)c2=S)cc1OC` (configuration not stated): 129 to 131 °C; `COc1ccc2nc(O)nc(O)c2c1`: greater than 290 °C.
Under `O=C(C(Cl)Cl)N1CCSC12CCCCC2` stands 149 to 151 °C; under `CCN(C)c1ccc(Cl)nn1`, 61 to 63 °C.
Compound `COC(=O)CCc1cc(C(=O)c2ccccc2Cl)c(N)s1` came in with a melting point of 89 to 90 °C.
In turn, `C=CCOC(=O)c1ccc(COC(=O)c2ccc(OC(C)C)c(C(C)(C)C)c2)cc1` yielded a melting point of 63 to 64 °C.
Under `O=C(c1ccccc1F)C1(O)CCNCC1` stands 133 to 135 °C.
